We go through four compounds from US8741806B2, “Herbicides” (Syngenta Limited, priority 2009, dated 2014).

Assay type in all cases: in vivo
Assay [1] relates to Alopecurus myosuroides (ALOMY). As to the kind of experiment: Example B pre-emergence herbicidal activity, glasshouse pot test. Conditions: 312 h, rate 250 g/ha, evaluated after 13 days, scale 0-100, read-out: Pre-emergence activity ALOMY (100=total damage to plant; 0=no damage to plant). In a few lines:
(§1)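 Pots were sprayed one day after sowing with the active ingredient in acetone/water (50:50) containing 0.5% Tween 20. Plants were kept in a glasshouse at 24/16° C day/night, 14 h light, 65% humidity. Damage was scored 13 days later (0 none to 100 total).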

Assay [2] concerns Echinochloa crus-galli (ECHCG). The description is as above. The conditions noted are these: 312 h, rate 250 g/ha, evaluated after 13 days, scale 0-100, read-out: Pre-emergence activity ECHCG (100=total damage to plant; 0=no damage to plant). In a few lines: as §1
For assay [3], the system named is Setaria faberi (SETFA). Described as above. The conditions noted are these: rate 250 g/ha, evaluated after 13 days, scale 0-100. In a few lines: as §1
Assay [4] has as its system Avena fatua (AVEFA). The description is as above. The conditions noted are these: 312 h, rate 250 g/ha, evaluated after 13 days, scale 0-100, read-out: Pre-emergence activity AVEFA (100=total damage to plant; 0=no damage to plant). A digest of the protocol: as §1
Assay [5] relates to Alopecurus myosuroides (ALOMY). As to the kind of experiment: Example A pre-emergence herbicidal activity, glasshouse pot test. Conditions: Rate 250 g/ha, evaluated 20 days later, 100=total damage to plant, 0=no damage to plant. How it is done:
(§2) Seeds of a variety of test species were sown in standard soil in pots. After cultivation for one day (pre-emergence) or after 10 days cultivation (post-emergence) under controlled conditions in a glasshouse, the plants were sprayed with an aqueous spray solution derived from the formulation of the technical active ingredient of formula I in 0.6 ml acetone and 45 ml formulation solution containing 10.6% Emulsogen EL (Registry number 61791-12-6), 42.2% N-methylpyrrolidone, 42.2% dipropylene glycol monomethyl ether (Registry number 34590-94-8) and 0.2% X-77 (Registry number 11097-66-8). The test plants were then grown in a greenhouse under optimum conditions until, 15 days later for post-emergence and 20 days for pre-emergence, the test was evaluated (100=total damage to plant; 0=no damage to plant). The compound of Example 1-8-a-1 from WO99/48869 was also sprayed for comparison. Alopecurus myosuroides (ALOMY), Avena fatua (AVEFA), Lolium perenne (LOLPE), Setaria faberi (SETFA), Digitaria sanguinalis (DIGSA), Echinochloa crus-galli (ECHCG) and Sorghum bicolor (SORVU) Pre-Emergence Activity

For assay [6], the system named is Lolium perenne (LOLPE). Described as above. The conditions noted are these: Rate 250 g/ha, evaluated 20 days later, 100=total damage to plant, 0=no damage to plant. Here is the method:
as §2

The test system of assay [7] is Echinochloa crus-galli (ECHCG). Described as above. Conditions: Rate 250 g/ha, evaluated 20 days later, 100=total damage to plant, 0=no damage to plant. Here is the method: as §2
For assay [8], the system named is Setaria faberi (SETFA). The assay is described as above. The conditions noted are these: Rate 250 g/ha, evaluated 20 days later, 100=total damage to plant, 0=no damage to plant. How it is done:
as §2

Assay [9] has as its system Avena fatua (AVEFA). The description is as above. Conditions: Rate 250 g/ha, evaluated 20 days later, 100=total damage to plant, 0=no damage to plant. How it is done: as §2
The subject of assay [10] is Alopecurus myosuroides (ALOMY). As to the kind of experiment: Example A post-emergence herbicidal activity, glasshouse pot test. The conditions noted are these: Rate 15 g/ha, evaluated 15 days later, 100=total damage to plant, 0=no damage to plant. Here is the method: as §2, with “Post-Emergence” for “Pre-Emergence”
Assay [11] deals with Sorghum bicolor (SORVU). The description is as above. Conditions: Rate 15 g/ha, evaluated 15 days later, 100=total damage to plant, 0=no damage to plant. How it is done: as §2, with “Post-Emergence” for “Pre-Emergence”
Assay [12] relates to Echinochloa crus-galli (ECHCG). Described as above. Conditions: Rate 15 g/ha, evaluated 15 days later, 100=total damage to plant, 0=no damage to plant. Here is the method:
as §2, with “Post-Emergence” for “Pre-Emergence”

The subject of assay [13] is Digitaria sanguinalis (DIGSA). Described as above. The conditions noted are these: Rate 15 g/ha, evaluated 15 days later, 100=total damage to plant, 0=no damage to plant. How it is done: as §2, with “Post-Emergence” for “Pre-Emergence”
Assay [14] concerns Setaria faberi (SETFA). Described as above. The conditions noted are these: Rate 15 g/ha, evaluated 15 days later, 100=total damage to plant, 0=no damage to plant. Here is the method: as §2, with “Post-Emergence” for “Pre-Emergence”
Assay [15] has as its system Avena fatua (AVEFA). Described as above. The conditions noted are these: Rate 15 g/ha, evaluated 15 days later, 100=total damage to plant, 0=no damage to plant. Here is the method: as §2, with “Post-Emergence” for “Pre-Emergence”
The test system of assay [16] is Alopecurus myosuroides (ALOMY). Kind of assay: Example B post-emergence herbicidal activity, glasshouse pot test. The conditions noted are these: 312 h, rate 250 g/ha, evaluated after 13 days, scale 0-100, read-out: Post-emergence activity ALOMY (100=total damage to plant; 0=no damage to plant). A digest of the protocol:
(§3)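 Seeds sown in standard soil, grown 8 days in glasshouse (24/16 °C day/night, 14 h light, 65% humidity), then sprayed post-emergence with compound in acetone/water (50:50) containing 0.5% Tween 20. Damage scored visually after 13 days on a 0–100 scale (100 = total damage).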

For assay [17], the system named is Echinochloa crus-galli (ECHCG). The assay is described as above. Conditions: 312 h, rate 250 g/ha, evaluated after 13 days, scale 0-100, read-out: Post-emergence activity ECHCG (100=total damage to plant; 0=no damage to plant). In a few lines: as §3
The subject of assay [18] is Setaria faberi (SETFA). The description is as above. Conditions: rate 250 g/ha, evaluated after 13 days, scale 0-100. A digest of the protocol: as §3
Assay [19] deals with Avena fatua (AVEFA). The description is as above. Conditions: 312 h, rate 250 g/ha, evaluated after 13 days, scale 0-100, read-out: Post-emergence activity AVEFA (100=total damage to plant; 0=no damage to plant). In a few lines:
as §3

The subject of assay [20] is Digitaria sanguinalis (DIGSA). As to the kind of experiment: Example A pre-emergence herbicidal activity, glasshouse pot test. Conditions: Rate 250 g/ha, evaluated 20 days later, 100=total damage to plant, 0=no damage to plant. How it is done:
as §2

`CCc1ccc(-c2ccc(Cl)cc2)cc1C1=C(O)C(C)(C)CCC1=O` [Compound T1, 2-(4′-chloro-4-ethylbiphen-3-yl)-4,4-dimethyl-1,3-cyclohexanedione]: the pest or weed control at 250 g/ha was determined as 50% in [1]; 100% in assay [2]; 0% in assay [4]; 90% in assay [16]; 100% in assay [17]; 40% in [19]. Besides, the “Pre-emergence activity SETFA (100=total damage to plant; 0=no damage to plant)” value in assay [3] is 100. The “Pre-Emergence Activity ALOMY (damage to plant)” value (“Pre-Emergence Activity ALOMY” for short) in [5] is 60. Moreover, the “Pre-Emergence Activity LOLPE (damage to plant)” value (from here on “Pre-Emergence Activity LOLPE”) in assay [6] was 90. Besides, in [7], the “Pre-Emergence Activity ECHCG (damage to plant)” value (from here on “Pre-Emergence Activity ECHCG”) is listed as 90. Also, the “Pre-Emergence Activity SETFA (damage to plant)” value in [8] is recorded as 100. The “Pre-Emergence Activity AVEFA (damage to plant)” value (from here on “Pre-Emergence Activity AVEFA”) in assay [9] is 70. The “Post-Emergence Activity ALOMY (damage to plant)” value (from here on “Post-Emergence Activity ALOMY”) in assay [10] turned out to be 0. For the same compound, the “Post-Emergence Activity SORVU (damage to plant)” value (shortened to “Post-Emergence Activity SORVU”) in assay [11] is given as 50. Moreover, the “Post-Emergence Activity ECHCG (damage to plant)” value (“Post-Emergence Activity ECHCG” below) in assay [12] was determined as 70. Further, in assay [13], the “Post-Emergence Activity DIGSA (damage to plant)” value (from here on “Post-Emergence Activity DIGSA”) is on record as 80. For the same compound, the “Post-Emergence Activity SETFA (damage to plant)” value in assay [14] was 90. Moreover, the “Post-Emergence Activity AVEFA (damage to plant)” value (shortened to “Post-Emergence Activity AVEFA”) in assay [15] worked out at 10. Moreover, the “Post-emergence activity SETFA (100=total damage to plant; 0=no damage to plant)” value in assay [18] stood at 100.
As to `CCc1ccc(-c2ccc(Cl)cc2)cc1C1=C(O)CC(C)(C)CC1=O` [Compound T3], the pest or weed control at 250 g/ha in [1] is 60%; in [2], 100%; in assay [4], 20%; in assay [16], 100%; in [17], 100%; in assay [19], 20%. In addition, the “Pre-emergence activity SETFA (100=total damage to plant; 0=no damage to plant)” value in assay [3] turned out to be 100. Further, the “Pre-Emergence Activity ALOMY” value in assay [5] is 90. In addition, the “Pre-Emergence Activity LOLPE” value in [6] is reported as 100. Moreover, the “Pre-Emergence Activity ECHCG” value in assay [7] is on record as 100. Also, the “Pre-Emergence Activity DIGSA (damage to plant)” value (“Pre-Emergence Activity DIGSA” below) in [20] is reported as 100. In addition, the “Pre-Emergence Activity SETFA (damage to plant)” value in assay [8] turned out to be 80. In addition, the “Pre-Emergence Activity AVEFA” value in assay [9] is given as 50. In [10], the “Post-Emergence Activity ALOMY” value amounted to 50. In addition, the “Post-Emergence Activity SORVU” value in [11] is reported as 70. Besides, the “Post-Emergence Activity ECHCG” value in [12] turned out to be 70. The “Post-Emergence Activity DIGSA” value in assay [13] came out at 70. Moreover, the “Post-Emergence Activity SETFA (damage to plant)” value in [14] is 70. In addition, in assay [15], the “Post-Emergence Activity AVEFA” value came to 20. Further, in [18], the “Post-emergence activity SETFA (100=total damage to plant; 0=no damage to plant)” value was 100.
On to `CCc1ccc(-c2ccc(Cl)cc2)cc1C1=C(O)CCCC1=O` [Compound T2], for which the pest or weed control at 250 g/ha in assay [1] came out at 40%; in [2] it was 100%; in [4], 40%; in assay [16] it was 90%; in assay [17] it was 100%; in assay [19] it was 80%. Further, the “Pre-emergence activity SETFA (100=total damage to plant; 0=no damage to plant)” value in assay [3] came to 100. Besides, the “Pre-Emergence Activity ALOMY” value in assay [5] was 60. The “Pre-Emergence Activity LOLPE” value in assay [6] came to 70. Besides, the “Pre-Emergence Activity ECHCG” value in [7] amounted to 100. For the same compound, in [20], the “Pre-Emergence Activity DIGSA” value turned out to be 80. The “Pre-Emergence Activity SETFA (damage to plant)” value in assay [8] turned out to be 80. Also, the “Pre-Emergence Activity AVEFA” value in assay [9] came to 70. Also, the “Post-Emergence Activity ALOMY” value in assay [10] is listed as 0. Moreover, in assay [11], the “Post-Emergence Activity SORVU” value worked out at 70. The “Post-Emergence Activity ECHCG” value in assay [12] worked out at 90. Besides, in assay [13], the “Post-Emergence Activity DIGSA” value is 80. Also, in [14], the “Post-Emergence Activity SETFA (damage to plant)” value amounted to 80. Besides, the “Post-Emergence Activity AVEFA” value in assay [15] was 0. Also, the “Post-emergence activity SETFA (100=total damage to plant; 0=no damage to plant)” value in [18] came out at 100.
`Cc1ccc(-c2ccc(Cl)cc2)cc1C1=C(O)C(C)(C)CCC1=O` [Example 1-8-a-1 from WO99/48869, reference compound]: in assay [5], the “Pre-Emergence Activity ALOMY” value was determined as 20. The “Pre-Emergence Activity LOLPE” value in assay [6] was 20. Besides, the “Pre-Emergence Activity ECHCG” value in assay [7] was 90. For the same compound, in assay [20], the “Pre-Emergence Activity DIGSA” value came out at 70. In addition, in assay [8], the “Pre-Emergence Activity SETFA (damage to plant)” value is on record as 30. In assay [9], the “Pre-Emergence Activity AVEFA” value is 0. Moreover, in assay [10], the “Post-Emergence Activity ALOMY” value was found to be 0. Also, the “Post-Emergence Activity SORVU” value in assay [11] was 0. Further, the “Post-Emergence Activity ECHCG” value in assay [12] is recorded as 70. Besides, the “Post-Emergence Activity DIGSA” value in assay [13] was 20. Moreover, in assay [14], the “Post-Emergence Activity SETFA (damage to plant)” value turned out to be 20. For the same compound, in assay [15], the “Post-Emergence Activity AVEFA” value worked out at 0.
